Source: patent publication US20260176320A1, “MODULATORS OF G-PROTEIN COUPLED RECEPTORS” (priority 2018, published 2026)
Like-named read-outs stand apart in the source and are kept apart here. Numbered stars: 1 amine (or outer) side, 2 acyl side, 3 side chain; on linkers, the order of the positions; unused ones are H or OH. Square brackets hold non-standard residues; d marks the D form. Side chains are listed from the residue outwards. Peptide text beside a SMILES is read from it. * marks the point of attachment. X9 = O=C([C@H](Cc1cc(O)no1)N[*:1])[*:2]; γGlu = O=C(O)[C@H](CCC(=O)[*:2])N[*:1]; Palmitoyl = CCCCCCCCCCCCCCCC(=O)*; X6 = O=C(CSCC(=O)*)NCCN1CCCCC1=O; Aib = CC(C)(N)C(=O)O

How the values were obtained:
[1] = target: GLP-1R (Homo sapiens, UniProt P43220); experiment: HitHunter cAMP assay (GLP-1R); assay type: cell-based; settings: cAMP; for Emax: read-out: (Emax) GLP-1R
Summary of the method: (§1)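 Suspension cells expressing each receptor (10,000 per well) in HBSS with 10 mM HEPES, 625 μM IBMX and 0.2% BSA were treated with a 22-point 2-fold agonist series in duplicate for 30 minutes at room temperature. cAMP was detected by antibody immunocompetition with luminescence read after overnight incubation.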

[2] = target: T1, GIP-R (Homo sapiens, UniProt P48546); experiment: HitHunter cAMP assay (GIP-R); assay type: cell-based; settings: cAMP; for Emax: read-out: (Emax) GIP-R
T1 sequence (P48546 22-466): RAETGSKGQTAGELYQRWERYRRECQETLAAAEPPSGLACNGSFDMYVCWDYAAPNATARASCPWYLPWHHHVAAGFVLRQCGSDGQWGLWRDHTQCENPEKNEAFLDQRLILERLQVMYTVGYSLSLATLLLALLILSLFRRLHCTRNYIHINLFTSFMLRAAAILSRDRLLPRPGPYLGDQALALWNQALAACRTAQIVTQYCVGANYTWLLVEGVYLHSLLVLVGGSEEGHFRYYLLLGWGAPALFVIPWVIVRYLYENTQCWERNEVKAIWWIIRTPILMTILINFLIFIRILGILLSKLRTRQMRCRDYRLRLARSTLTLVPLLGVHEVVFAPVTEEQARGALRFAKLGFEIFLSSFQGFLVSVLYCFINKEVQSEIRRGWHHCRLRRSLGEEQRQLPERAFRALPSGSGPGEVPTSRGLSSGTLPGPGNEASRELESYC
Summary of the method: as §1

[3] = Table 3, read-out: EC50 GLP-1R/nM
[4] = Table 3A, read-out: EC50 GLP-1R/nM
[5] = Table 3, read-out: EC50 GIP-R/nM
[6] = Table 3A, read-out: EC50 GIP-R/nM

GLP-1R, sequence (P43220 24-463): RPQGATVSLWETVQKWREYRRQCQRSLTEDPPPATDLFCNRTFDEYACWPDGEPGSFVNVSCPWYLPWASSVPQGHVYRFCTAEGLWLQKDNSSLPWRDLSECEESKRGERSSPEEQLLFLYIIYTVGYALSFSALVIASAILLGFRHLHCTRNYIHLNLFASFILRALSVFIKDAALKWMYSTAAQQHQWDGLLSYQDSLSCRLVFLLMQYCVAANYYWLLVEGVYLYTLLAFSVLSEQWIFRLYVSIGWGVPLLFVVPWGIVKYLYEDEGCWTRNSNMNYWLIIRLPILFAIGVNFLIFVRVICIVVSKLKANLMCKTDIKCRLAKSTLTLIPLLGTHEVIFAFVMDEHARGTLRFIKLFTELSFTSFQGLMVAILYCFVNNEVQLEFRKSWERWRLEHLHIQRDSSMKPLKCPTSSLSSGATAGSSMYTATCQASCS

## CCCCCCCCCCCCCCCC(=O)N[C@@H](CCC(=O)NCCCC[C@H](NC(=O)[C@H](CO)NC(=O)[C@@H]1CCCN1C(=O)[C@@H]1CCCN1C(=O)[C@@H]1CCCN1C(=O)[C@H](C)NC(=O)CNC(=O)[C@H](CO)NC(=O)[C@H](CO)NC(=O)[C@@H]1CCCN1C(=O)CNC(=O)CNC(=O)[C@H](C)NC(=O)[C@H](CC(C)C)NC(=O)[C@H](CC(C)C)NC(=O)[C@H](Cc1c[nH]c2ccccc12)NC(=O)[C@H](CC(N)=O)NC(=O)[C@@H](NC(=O)[C@H](Cc1ccccc1)NC(=O)[C@H](CCC(=O)O)NC(=O)C(C)(C)NC(=O)[C@H](C)NC(=O)[C@H](C)NC(=O)[C@H](CCC(N)=O)NC(=O)[C@H](CCCCN)NC(=O)[C@H](CC(=O)O)NC(=O)[C@H](CC(C)C)NC(=O)[C@H](Cc1ccc(O)cc1)NC(=O)[C@@H](NC(=O)[C@H](CO)NC(=O)[C@H](Cc1ccc(O)cc1)NC(=O)[C@H](CC(=O)O)NC(=O)[C@H](CO)NC(=O)[C@@H](NC(=O)[C@H](Cc1ccccc1)NC(=O)[C@@H](NC(=O)CNC(=O)[C@H](CCC(=O)O)NC(=O)CSCC(=O)NCCN1CC(=O)N(C)C1=O)[C@@H](C)O)[C@@H](C)O)[C@@H](C)CC)C(C)C)C(N)=O)C(=O)O [Compound 46]
[1]; Table 3
  Emax: 100%
[1]; [3]
  EC50: 1 to 10 nM
[1]; Table 3A
  Emax: 100%
[1]; [4]
  EC50: 1 to 10 nM
[2]; Table 3
  Emax: 46%
[2]; [5]
  EC50: 1 to 10 nM
[2]; Table 3A
  Emax: 46%
[2]; [6]
  EC50: 1 to 10 nM

## CCCCCCCCCCCCCCCC(=O)N[C@@H](CCC(=O)NCCCC[C@H](NC(=O)[C@H](CO)NC(=O)[C@@H]1CCCN1C(=O)[C@@H]1CCCN1C(=O)[C@@H]1CCCN1C(=O)[C@H](C)NC(=O)CNC(=O)[C@H](CO)NC(=O)[C@H](CO)NC(=O)[C@@H]1CCCN1C(=O)CNC(=O)CNC(=O)[C@H](C)NC(=O)[C@H](CC(C)C)NC(=O)[C@H](CC(C)C)NC(=O)[C@H](Cc1c[nH]c2ccccc12)NC(=O)[C@H](CC(N)=O)NC(=O)[C@@H](NC(=O)[C@H](Cc1ccccc1)NC(=O)[C@H](CCC(=O)O)NC(=O)C(C)(C)NC(=O)[C@H](C)NC(=O)[C@H](C)NC(=O)[C@H](CCC(N)=O)NC(=O)[C@H](CCCCN)NC(=O)[C@H](CC(=O)O)NC(=O)[C@H](CC(C)C)NC(=O)[C@H](Cc1ccc(O)cc1)NC(=O)[C@@H](NC(=O)[C@H](CO)NC(=O)[C@H](Cc1ccc(O)cc1)NC(=O)[C@H](CC(=O)O)NC(=O)[C@H](CO)NC(=O)[C@@H](NC(=O)[C@H](Cc1ccccc1)NC(=O)[C@@H](NC(=O)CNC(=O)[C@H](CCc1nn[nH]n1)NC(=O)CSCC(=O)NCCN1CCCCC1=O)[C@@H](C)O)[C@@H](C)O)[C@@H](C)CC)C(C)C)C(N)=O)C(=O)O [Compound 221]
[1]; Table 3A
  Emax: 95%
[1]; [4]
  EC50: 1 to 10 nM
[2]; Table 3A
  Emax: 68%
[2]; [6]
  EC50: 1 to 10 nM

## CCCCCCCCCCCCCCCC(=O)N[C@@H](CCC(=O)NCCCC[C@H](NC(=O)[C@H](CO)NC(=O)[C@@H]1CCCN1C(=O)[C@@H]1CCCN1C(=O)[C@@H]1CCCN1C(=O)[C@H](C)NC(=O)CNC(=O)[C@H](CO)NC(=O)[C@H](CO)NC(=O)[C@@H]1CCCN1C(=O)CNC(=O)CNC(=O)[C@H](C)NC(=O)[C@H](CC(C)C)NC(=O)[C@H](CC(C)C)NC(=O)[C@H](Cc1c[nH]c2ccccc12)NC(=O)[C@H](CC(N)=O)NC(=O)[C@@H](NC(=O)[C@H](Cc1ccccc1)NC(=O)[C@H](CCC(=O)O)NC(=O)C(C)(C)NC(=O)[C@H](C)NC(=O)[C@H](C)NC(=O)[C@H](CCC(N)=O)NC(=O)[C@H](CCCCN)NC(=O)[C@H](CC(=O)O)NC(=O)[C@H](CC(C)C)NC(=O)[C@H](Cc1ccc(O)cc1)NC(=O)[C@@H](NC(=O)[C@H](CO)NC(=O)[C@H](Cc1ccc(O)cc1)NC(=O)[C@H](CC(=O)O)NC(=O)[C@H](CO)NC(=O)[C@@H](NC(=O)[C@H](Cc1ccccc1)NC(=O)[C@@H](NC(=O)CNC(=O)[C@H](CCC(=O)O)NC(=O)CSCC(=O)NCCN1C[C@H](O)CC1=O)[C@@H](C)O)[C@@H](C)O)[C@@H](C)CC)C(C)C)C(N)=O)C(=O)O [Compound 50]
[1]; Table 3
  Emax: 103%
[1]; [3]
  EC50: 0.1 to 1 nM
[1]; Table 3A
  Emax: 103%
[1]; [4]
  EC50: 0.1 to 1 nM
[2]; Table 3
  Emax: 26%
[2]; [5]
  EC50: 1 to 10 nM
[2]; Table 3A
  Emax: 26%
[2]; [6]
  EC50: 10 to 100 nM

## CCCCCCCCCCCCCCCC(=O)N[C@@H](CCC(=O)NCCCC[C@H](NC(=O)[C@H](CO)NC(=O)[C@@H]1CCCN1C(=O)[C@@H]1CCCN1C(=O)[C@@H]1CCCN1C(=O)[C@H](C)NC(=O)CNC(=O)[C@H](CO)NC(=O)[C@H](CO)NC(=O)[C@@H]1CCCN1C(=O)CNC(=O)CNC(=O)[C@H](C)NC(=O)[C@H](CC(C)C)NC(=O)[C@H](CC(C)C)NC(=O)[C@H](Cc1c[nH]c2ccccc12)NC(=O)[C@H](CC(N)=O)NC(=O)[C@@H](NC(=O)[C@H](Cc1ccccc1)NC(=O)[C@H](CCC(=O)O)NC(=O)C(C)(C)NC(=O)[C@H](C)NC(=O)[C@H](C)NC(=O)[C@H](CCC(N)=O)NC(=O)[C@H](CCCCN)NC(=O)[C@H](CC(=O)O)NC(=O)[C@H](CC(C)C)NC(=O)[C@H](Cc1ccc(O)cc1)NC(=O)[C@@H](NC(=O)[C@H](CO)NC(=O)[C@H](Cc1ccc(O)cc1)NC(=O)[C@H](CC(=O)O)NC(=O)[C@H](CO)NC(=O)[C@@H](NC(=O)[C@H](Cc1ccccc1)NC(=O)[C@@H](NC(=O)CNC(=O)[C@H](Cc1cc(O)no1)NC(=O)CSCC(=O)NCCN1CCCCC1=O)[C@@H](C)O)[C@@H](C)O)[C@@H](C)CC)C(C)C)C(N)=O)C(=O)O [Compound 292] (X6-[X9]GTFTSDYSIYLDKQAA[Aib]EFVNWLLAGGPSSGAPPPSK([γGlu-Palmitoyl])-NH2)
[1]; Table 3A
  Emax: 90%
[1]; [4]
  EC50: 1 to 10 nM
[2]; Table 3A
  Emax: 50%
[2]; [6]
  EC50: 10 to 100 nM

## CCCCCCCCCCCCCCCC(=O)N[C@@H](CCC(=O)NCCCC[C@H](NC(=O)[C@H](CO)NC(=O)[C@@H]1CCCN1C(=O)[C@@H]1CCCN1C(=O)[C@@H]1CCCN1C(=O)[C@H](C)NC(=O)CNC(=O)[C@H](CO)NC(=O)[C@H](CO)NC(=O)[C@@H]1CCCN1C(=O)CNC(=O)CNC(=O)[C@H](C)NC(=O)[C@H](CC(C)C)NC(=O)[C@H](CC(C)C)NC(=O)[C@H](Cc1c[nH]c2ccccc12)NC(=O)[C@H](CC(N)=O)NC(=O)[C@@H](NC(=O)[C@H](Cc1ccccc1)NC(=O)[C@H](CCC(=O)O)NC(=O)C(C)(C)NC(=O)[C@H](C)NC(=O)[C@H](C)NC(=O)[C@H](CCC(N)=O)NC(=O)[C@H](CCCCN)NC(=O)[C@H](CC(=O)O)NC(=O)[C@H](CC(C)C)NC(=O)[C@H](Cc1ccc(O)cc1)NC(=O)[C@@H](NC(=O)[C@H](CO)NC(=O)[C@H](Cc1ccc(O)cc1)NC(=O)[C@H](CC(=O)O)NC(=O)[C@H](CO)NC(=O)[C@@H](NC(=O)[C@H](Cc1ccccc1)NC(=O)[C@@H](NC(=O)CNC(=O)[C@H](CCC(=O)O)NC(=O)CSCC(=O)NCCN1C(=O)NC(C)(C)C1=O)[C@@H](C)O)[C@@H](C)O)[C@@H](C)CC)C(C)C)C(N)=O)C(=O)O [Compound 87]
[1]; Table 3
  Emax: 89%
[1]; [3]
  EC50: 1 to 10 nM
[1]; Table 3A
  Emax: 89%
[1]; [4]
  EC50: 1 to 10 nM
[2]; Table 3
  Emax: 62%
[2]; [5]
  EC50: 1 to 10 nM
[2]; Table 3A
  Emax: 62%
[2]; [6]
  EC50: 1 to 10 nM

## CC[C@H](C)[C@H](NC(=O)[C@H](CO)NC(=O)[C@H](Cc1ccc(O)cc1)NC(=O)[C@H](CC(=O)O)NC(=O)[C@H](CO)NC(=O)[C@@H](NC(=O)[C@H](Cc1ccccc1)NC(=O)[C@@H](NC(=O)CNC(=O)[C@H](CCC(=O)O)NC(=O)CSCC(=O)NCCN1C(=O)c2cccc([N+](=O)[O-])c2C1=O)[C@@H](C)O)[C@@H](C)O)C(=O)N[C@@H](Cc1ccc(O)cc1)C(=O)N[C@@H](CC(C)C)C(=O)N[C@@H](CC(=O)O)C(=O)N[C@@H](CCCCN)C(=O)N[C@@H](CCC(N)=O)C(=O)N[C@@H](C)C(=O)N[C@@H](C)C(=O)NC(C)(C)C(=O)N[C@@H](CCC(=O)O)C(=O)N[C@@H](Cc1ccccc1)C(=O)N[C@H](C(=O)N[C@@H](CC(N)=O)C(=O)N[C@@H](Cc1c[nH]c2ccccc12)C(=O)N[C@@H](CC(C)C)C(=O)N[C@@H](CC(C)C)C(=O)N[C@@H](C)C(=O)NCC(=O)NCC(=O)N1CCC[C@H]1C(=O)N[C@@H](CO)C(=O)N[C@@H](CO)C(=O)NCC(=O)N[C@@H](C)C(=O)N1CCC[C@H]1C(=O)N1CCC[C@H]1C(=O)N1CCC[C@H]1C(=O)N[C@@H](CO)C(=O)N[C@@H](CCCCN)C(N)=O)C(C)C [Compound 108]
[1]; EC50 GLP-1R/nM, Table 3
  EC50: > 1000 nM
[1]; EC50 GLP-1R/nM, Table 3A
  EC50: > 1000 nM
[1]; read-out: (Emax) GLP-1R at 1 μM, Table 3
  Emax at 1 µM: 18%
[1]; read-out: (Emax) GLP-1R at 1 μM, Table 3A
  Emax at 1 µM: 18%
[2]; EC50 GIP-R/nM, Table 3
  EC50: 10 to 100 nM
[2]; EC50 GIP-R/nM, Table 3A
  EC50: 10 to 100 nM
[2]; Table 3
  Emax: 69%
[2]; Table 3A
  Emax: 69%
